{
  "source": "paper PMC3462190",
  "about": "“A Peptidic Unconjugated GRP78/BiP Ligand Modulates the Unfolded Protein Response and Induces Prostate Cancer Cell Death” (PLoS ONE, 2012)",
  "note": "Where no end group is shown, it is not given here.",
  "data": [
    {"test_system": "22Rv.1 cells", "test": "Clonogenic assay", "format": "cell-based", "settings": "neomycin selection, colonies quantified; mean ± SEM of at least three independent experiments", "excerpt": "Figure 5 An N-terminal unfolded fragment of the Bag-1 peptide is sufficient to reduce tumor cell growth. A. Schematic diagram of the Bag-1 peptide and its deletion mutants. The ubiquitin-like domain is represented in blue and the BAG domain in red. The numbers refer to the amino acid positions of the different domains. The amino acid residues are numbered following the numbering for Bag-1L. B. Prediction of the secondary structure of the Bag-1 peptide, showing an N-terminal β-hairpin from the ubiquitin-like domain (blue) and a C-terminal α-helix from the BAG domain (red). C. Normalized circular dichroism spectra of the Bag-1 peptides. 30 µM of the Bag-1 peptide were measured in 20 mM KHPO4 buffer, pH 6.8 (black line). Its α-helical content was estimated to be approximately 25% by deconvolution of the spectra (red line). 12 µM of the N-term peptide (green line) and 11 µM of C-term (blue line) were measured under the same conditions. D. ^1H^15N-HSQC NMR spectrum of ^15N-labeled Bag-1 peptide (202–269) in 20 mm KHPO4 buffer, pH 6.8, at 23°C. […] The Hδ and Hε side chain signals of asparagine and glutamine are connected by thin lines. E. The N-terminal region of the Bag-1 peptide is important for GRP78 binding. 400 µg of 22Rv.1 cell lysate were incubated with glutathione-agarose beads carrying 15 µg GST-N-term peptide (lane 2), GST-C-term peptide (lane 3), GST-ΔUbi peptide (lane 4), GST-Bag-1(202–269) peptide (lane 5) and GST (lane 6). The beads were washed and the bound proteins were separated by 10% SDS-PAGE and subjected to Western blotting using antibodies directed against GRP78 or GST. […] F. Clonogenic assay of the Bag-1 peptides expressed in 22Rv.1 cells. Cells transfected with the indicated constructs were selected in medium containing neomycin and the colonies formed were quantified. Shown are the mean value ±SEM of at least three independent experiments using three different plasmid preparations (*p<0.05). […] Six-week old athymic nude mice were injected subcutaneously on both flanks with 5×10^6 cells of each stable clone. Tumor size was measured once per week using a caliper and expressed as tumor volume in mm^3. Shown are the tumor volumes of clones transfected with the N-terminal peptide (G), the C-terminal peptide (H) and the ΔUbi peptide (I). Each point represents the mean volume and standard deviation of at least 5 to 10 tumors.\nFigure 6 Selectivity of action of the Bag-1 peptide. A Amino acid sequence of the 19mer peptide and its deletion mutants. B GST pull-down assay performed incubating 400 µg of 22Rv.1 cell lysate and 25 µg of GST-fused deletion mutants of the 19mer peptide. After the pull-down experiment, Western blots were carried out with anti-GRP78/BiP and GST antibodies. C. Fluorescence polarization (FP) assays with a 10 nM FITC-labeled 7-mer Bag-1 peptide and dilutions of the GST-fused substrate binding domain of GRP78 in 60 µl of Tris-GSH buffer (50 mM Tris, 10 mM reduced glutathione and 0.1% BSA, pH 8.0). Triplicate samples were measured after 5 h of incubation at room temperature with an Infinite F-200 reader (Tecan) with excitation at 490 nm and emission at 535 nm. Binding constants were determined from three independent experiments using non-linear regression in Sigma Plot 10.0. D. Competition assays with a complex of 10 nM of FITC-labeled Bag-1 7-mer peptide and 0.75 mg/ml GST-fused GRP78 substrate binding domain was measured against a dilution series from 100 µM to 0.1 nM of wild-type Bag-1 7-mer peptide (filled line) or triple mutant peptide (dotted line) in 40 µl of Tris-GSH buffer. FITC-peptide and the FITC-peptide-protein complex were used as controls. Fluorescence polarization was determined as described above and IC50 values were determined in Sigma Plot. […]", "values": [
      {"molecule": "19-mer: Bag-1L 202–220 (TPLSALGIQDGCRVMLIGK; not fully specified)", "22Rv.1 growth in clonogenic assay": "inhibit 22Rv.1 cell growth"},
      {"molecule": "C-terminal peptide: 28 C-terminal fragment of the Bag-1 peptide (Bag-1L 241–269) (EKIADQLEELNKELTGIQQGFLPKDLQAE; not fully specified)", "22Rv.1 growth in clonogenic assay": "ineffective"},
      {"molecule": "N-terminal peptide: N-terminal 40 residues of the Bag-1 peptide (Bag-1L 202–241) (TPLSALGIQDGCRVMLIGKKNSPQEEVELKKLKHLEKSVE; not fully specified)", "22Rv.1 growth in clonogenic assay": "inhibited growth of the 22Rv.1 cells"},
      {"molecule": "ΔUbi peptide: Bag-1 peptide lacking the ubiquitin-like domain portion (Bag-1L 220–269) (KKNSPQEEVELKKLKHLEKSVEKIADQLEELNKELTGIQQGFLPKDLQAE; not fully specified)", "22Rv.1 growth in clonogenic assay": "ineffective"},
      {"molecule": "Bag-1 peptide: internal sequence of 68 amino acids of Bag-1 (Bag1-L 202–269), HA-tagged, expressed from pcDNA3 (also: HA tag, end not given here) TPLSALGIQDGCRVMLIGKKNSPQEEVELKKLKHLEKSVEKIADQLEELNKELTGIQQGFLPKDLQAE", "22Rv.1 growth in clonogenic assay": "inhibited growth of the 22Rv.1 cells"}
    ]}
  ]
}
